{
  "source": "patent US20140248374A1",
  "about": "“COMPOSITIONS AND MULTI-STEP METHODS OF USING THE SAME FOR THE TREATMENT OF JELLYFISH STINGS” (UNIVERSITY OF HAWAII, priority 2011, published 2014)",
  "key": {"[1]": {"tested_on": "hemolytic toxins", "conditions": "in the presence of 10 mM D-lactulose; cited from earlier work"}, "[2]": {"tested_on": "Chironex fleckeri (the Australian box jellyfish) venom", "assay": "Survival time following lethal doses of venom in mice", "format": "in vivo"}, "[3]": {"tested_on": "human washed red blood cells (RBC, 2%) subjected to Alatina moseri venom", "assay": "Venom-induced hemolysis of washed RBC, 96-well plate, plasma hemoglobin read spectrophotometrically", "format": "cell-based", "conditions": "1 hour at 37° C., FIG. 1", "method": "Using a 96-well plate, human washed red blood cells (RBC, 2%) were subjected to Alatina moseri venom (6.4 U/mL/%). And treated simultaneously with a dose of zinc gluconate administered to a final concentration of from 0 to 25 mM zinc gluconate in combination with a dose of copper gluconate administered to a final concentration of from 0 to 128 μM. At the end of the incubation period, the 96 well plate was centrifuged briefly at 4° C. to pellet red blood cells from plasma. Plasma hemoglobin levels were then determined spectrophotometrically."}},
  "data": [
    {"compound": "OC[C@H]1O[C@@H](O[C@@H]2[C@@H](CO)O[C@](O)(CO)[C@H]2O)[C@H](O)[C@@H](O)[C@H]1O", "note": "[D-lactulose]", "values": [
      {"measurement": "hemolysis", "setting": "[1]", "value": "dramatic absence of hemolysis"}
    ]},
    {"compound": "Zinc", "values": [
      {"measurement": "survival time", "setting": "[2]", "value": "increase survival time"}
    ]},
    {"compound": "zinc gluconate", "values": [
      {"measurement": "inhibition of venom-induced hemolysis", "setting": "[3]; zinc gluconate alone (baseline), 2% RBC, Alatina moseri venom 6.4 U/mL/%", "value": "baseline inhibition of venom-induced hemolysis"}
    ]},
    {"compound": "copper gluconate", "values": [
      {"measurement": "inhibition of venom-induced hemolysis", "setting": "[3]; copper gluconate (0 to 128 μM) with between 0 mM and 12.5 mM zinc gluconate", "value": "substantially increased the baseline inhibition"},
      {"measurement": "hemolysis after exposure to venom", "setting": "[3]; up to 128 μM copper gluconate added to 25 mM zinc gluconate", "value": "practically eliminated hemolysis"}
    ]}
  ]
}
